Tests used:
[1] = target: T1, C-X-C chemokine receptor type 2 (Homo sapiens, UniProt P25025); assay type: cell membranes, CHO-K1, Membrane; also: in other assays of this panel Not Active means under 50% inhibition at 10 µM
T1 sequence (P25025 whole entry): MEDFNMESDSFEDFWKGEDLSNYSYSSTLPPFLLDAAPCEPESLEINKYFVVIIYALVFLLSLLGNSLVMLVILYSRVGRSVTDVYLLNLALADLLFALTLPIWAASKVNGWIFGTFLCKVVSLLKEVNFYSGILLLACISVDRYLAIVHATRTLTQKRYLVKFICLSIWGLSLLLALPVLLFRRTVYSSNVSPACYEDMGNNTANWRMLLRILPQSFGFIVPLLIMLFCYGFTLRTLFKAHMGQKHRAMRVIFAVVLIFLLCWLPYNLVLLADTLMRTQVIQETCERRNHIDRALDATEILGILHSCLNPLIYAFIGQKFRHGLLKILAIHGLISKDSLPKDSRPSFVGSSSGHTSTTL

[2] = DRUGMATRIX: Glutamate, NMDA, Phencyclidine radioligand binding (ligand: [3H] TCP); assay type: cell membranes, Rattus norvegicus, Wistar, Cerebral cortex, Membrane; conditions: Not Active = under 50% inhibition at 10 µM
[3] = target: Insulin receptor (Rattus norvegicus, UniProt P15127); assay type: cell membranes, Wistar, Liver, Membrane; also: in other assays of this panel Not Active means under 50% inhibition at 10 µM
[4] = target: T2, Polyunsaturated fatty acid lipoxygenase ALOX15 (Oryctolagus cuniculus, UniProt P12530); assay: biochemical; assay type: tissue-based, Reticulocytes;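 also: inhibition of 15-lipoxygenase enzyme activity measured with linoleic acid as the substrate; in other assays of this panel Not Active means under 50% inhibition at 10 µM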
T2 sequence (P12530 whole entry): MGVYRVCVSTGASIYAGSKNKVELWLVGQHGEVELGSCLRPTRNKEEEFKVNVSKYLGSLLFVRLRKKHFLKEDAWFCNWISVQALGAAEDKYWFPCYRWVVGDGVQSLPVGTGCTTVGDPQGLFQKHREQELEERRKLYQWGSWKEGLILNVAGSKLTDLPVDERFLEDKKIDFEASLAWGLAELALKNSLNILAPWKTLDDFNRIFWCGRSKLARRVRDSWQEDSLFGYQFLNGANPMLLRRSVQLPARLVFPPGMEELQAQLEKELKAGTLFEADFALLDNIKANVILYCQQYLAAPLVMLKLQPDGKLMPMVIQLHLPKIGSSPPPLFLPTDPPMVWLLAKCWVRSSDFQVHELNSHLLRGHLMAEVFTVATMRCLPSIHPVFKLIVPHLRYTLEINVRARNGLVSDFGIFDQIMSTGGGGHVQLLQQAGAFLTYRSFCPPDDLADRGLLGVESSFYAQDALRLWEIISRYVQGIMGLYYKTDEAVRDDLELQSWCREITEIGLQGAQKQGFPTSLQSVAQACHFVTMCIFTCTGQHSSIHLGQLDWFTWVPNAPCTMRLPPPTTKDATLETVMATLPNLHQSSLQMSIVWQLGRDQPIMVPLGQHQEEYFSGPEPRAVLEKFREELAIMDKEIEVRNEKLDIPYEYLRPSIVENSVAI

[5] = target: Protein kinase C alpha type (Homo sapiens, UniProt P17252); assay type: cell-based; conditions: sf9;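 also: inhibition of PKCalpha kinase activity measured in an enzyme assay with histone as the phosphorylation substrate; in other assays of this panel Not Active means under 50% inhibition at 10 µM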
[6] = target: Mitogen-activated protein kinase 1 (Homo sapiens, UniProt P28482); assay: DRUGMATRIX: Protein Serine/Threonine Kinase, ERK2 enzyme inhibition (substrate: Myelin Basic Protein); parameters: species or system Escherichia coli; conditions: Not Active = under 50% inhibition at 10 µM
[7] = target: 5-hydroxytryptamine receptor 1B (Rattus norvegicus, UniProt P28564); assay type: cell membranes, Wistar, Cerebral cortex, Membrane; conditions: for Ki: read-out: Ki
5-hydroxytryptamine receptor 1B, sequence (P28564 whole entry): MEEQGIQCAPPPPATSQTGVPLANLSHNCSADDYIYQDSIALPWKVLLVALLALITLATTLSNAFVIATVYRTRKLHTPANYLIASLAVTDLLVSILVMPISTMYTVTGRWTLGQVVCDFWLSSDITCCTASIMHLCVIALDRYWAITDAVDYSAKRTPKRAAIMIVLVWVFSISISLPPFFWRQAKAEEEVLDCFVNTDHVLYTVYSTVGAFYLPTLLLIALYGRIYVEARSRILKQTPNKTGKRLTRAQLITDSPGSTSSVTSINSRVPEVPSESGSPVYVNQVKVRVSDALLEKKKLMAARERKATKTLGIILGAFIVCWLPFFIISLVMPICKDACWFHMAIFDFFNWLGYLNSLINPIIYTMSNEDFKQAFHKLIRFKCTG

Insulin receptor, sequence (P15127 27-759 limits assumed): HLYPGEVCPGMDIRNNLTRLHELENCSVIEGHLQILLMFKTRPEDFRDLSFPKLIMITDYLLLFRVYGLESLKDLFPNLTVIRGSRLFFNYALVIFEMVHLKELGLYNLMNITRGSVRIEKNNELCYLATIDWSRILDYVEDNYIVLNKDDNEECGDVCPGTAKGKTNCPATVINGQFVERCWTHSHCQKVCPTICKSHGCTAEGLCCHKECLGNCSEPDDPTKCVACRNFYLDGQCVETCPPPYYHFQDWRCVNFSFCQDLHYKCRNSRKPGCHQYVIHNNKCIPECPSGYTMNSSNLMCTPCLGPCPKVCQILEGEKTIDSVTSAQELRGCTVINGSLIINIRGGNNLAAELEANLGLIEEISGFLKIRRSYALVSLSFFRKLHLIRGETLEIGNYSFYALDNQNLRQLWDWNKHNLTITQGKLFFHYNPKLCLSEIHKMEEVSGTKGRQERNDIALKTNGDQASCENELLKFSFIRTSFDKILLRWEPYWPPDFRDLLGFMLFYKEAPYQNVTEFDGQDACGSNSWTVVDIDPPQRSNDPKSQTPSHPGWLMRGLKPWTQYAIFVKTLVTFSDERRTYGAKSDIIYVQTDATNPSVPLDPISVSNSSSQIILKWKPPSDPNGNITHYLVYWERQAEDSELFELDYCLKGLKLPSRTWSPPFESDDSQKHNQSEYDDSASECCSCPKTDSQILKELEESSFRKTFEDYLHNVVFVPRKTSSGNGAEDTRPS
Insulin receptor, sequence (P15127 764-1383 limits assumed): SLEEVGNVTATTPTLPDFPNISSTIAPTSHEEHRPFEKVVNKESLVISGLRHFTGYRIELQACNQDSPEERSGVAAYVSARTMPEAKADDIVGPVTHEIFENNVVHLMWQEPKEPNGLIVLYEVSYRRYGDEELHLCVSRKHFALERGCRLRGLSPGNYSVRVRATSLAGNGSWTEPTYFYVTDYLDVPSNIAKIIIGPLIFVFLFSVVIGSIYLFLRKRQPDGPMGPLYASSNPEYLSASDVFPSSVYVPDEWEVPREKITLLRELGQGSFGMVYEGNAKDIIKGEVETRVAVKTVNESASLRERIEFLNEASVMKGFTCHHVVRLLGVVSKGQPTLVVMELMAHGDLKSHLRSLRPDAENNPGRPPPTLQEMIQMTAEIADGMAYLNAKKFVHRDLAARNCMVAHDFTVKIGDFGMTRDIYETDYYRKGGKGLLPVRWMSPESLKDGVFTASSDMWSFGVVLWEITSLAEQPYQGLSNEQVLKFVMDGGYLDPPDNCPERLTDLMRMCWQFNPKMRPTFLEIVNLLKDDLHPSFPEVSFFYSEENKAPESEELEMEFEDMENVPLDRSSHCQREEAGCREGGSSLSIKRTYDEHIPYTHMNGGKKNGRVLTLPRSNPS
Mitogen-activated protein kinase 1, sequence (P28482 whole entry): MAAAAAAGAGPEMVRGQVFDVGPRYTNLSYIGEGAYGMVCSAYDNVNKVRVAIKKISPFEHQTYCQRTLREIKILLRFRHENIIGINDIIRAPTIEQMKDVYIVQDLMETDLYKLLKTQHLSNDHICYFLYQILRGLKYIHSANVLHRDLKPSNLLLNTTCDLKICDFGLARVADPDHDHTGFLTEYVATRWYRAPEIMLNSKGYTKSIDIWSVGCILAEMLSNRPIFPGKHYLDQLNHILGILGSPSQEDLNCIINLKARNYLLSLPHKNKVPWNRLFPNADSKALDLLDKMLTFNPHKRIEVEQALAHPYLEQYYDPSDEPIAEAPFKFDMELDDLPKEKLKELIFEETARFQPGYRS

SMILES	IC50 ([1]; cho-k1)	IC50 [2]	Ki [2]	IC50 [3]	IC50 ([4]; reticulocytes)	IC50 [5]	IC50 [6]	IC50 [7]	IC50 ([6]; read-out: IC50) [µM]	IC50 ([1]; read-out: IC50) [µM]	Ki ([1]; read-out: Ki) [µM]	IC50 ([4]; read-out: IC50) [nM]	IC50 ([7]; read-out: IC50) [nM]	Ki [7] [nM]
CC[C@@]1(O)C(=O)OCc2c1cc1n(c2=O)Cc2cc3c(CN(C)C)c(O)ccc3nc2-1 [TOPOTECAN]	Not Active	Not Active	Not Active	Not Active	Not Active	Not Active	Not Active	Not Active	–	–	–	–	–	–
C#C[C@]1(O)CC[C@H]2[C@@H]3[C@H](C)CC4=C(CCC(=O)C4)[C@H]3CC[C@@]21C [TIBOLONE]	Not Active	Not Active	Not Active	Not Active	Not Active	Not Active	Not Active	Not Active	–	–	–	–	–	–
Oc1ccc(/C=C/c2cc(O)cc(O)c2)cc1 [RESVERATROL]	Not Active	Not Active	Not Active	Not Active	Not Active	Not Active	Not Active	Not Active	–	–	–	–	–	–
Cc1ccc(Cl)c(Nc2ccccc2C(=O)O)c1Cl [MECLOFENAMIC ACID]	Not Active	Not Active	Not Active	Not Active	Not Active	Not Active	–	Not Active	3.14	–	–	–	–	–
Cc1ccnc(NS(=O)(=O)c2ccc(N)cc2)n1 [SULFAMERAZINE]	Not Active	Not Active	Not Active	Not Active	Not Active	Not Active	Not Active	Not Active	–	–	–	–	–	–
CCOc1cc(N)c(Cl)cc1C(=O)NCC1CN(Cc2ccc(F)cc2)CCO1 (configuration not stated) [MOSAPRIDE]	Not Active	Not Active	Not Active	Not Active	Not Active	Not Active	Not Active	Not Active	–	–	–	–	–	–
C[C@]12CCC(=O)C[C@@H]1CC[C@@H]1[C@@H]2CC[C@]2(C)[C@@H](O)CC[C@@H]12 [STANOLONE]	Not Active	Not Active	Not Active	Not Active	Not Active	Not Active	Not Active	Not Active	–	–	–	–	–	–
C[N+]1(C)[C@@H]2C[C@@H](OC(=O)[C@H](CO)c3ccccc3)C[C@H]1[C@@H]1O[C@@H]12.[Br-] [METHSCOPOLAMINE BROMIDE]	Not Active	Not Active	Not Active	Not Active	Not Active	Not Active	Not Active	Not Active	–	–	–	–	–	–
OC[C@@H](O)[C@@H](O)[C@H](O)[C@H](O)CO [MANNITOL]	Not Active	Not Active	Not Active	Not Active	Not Active	Not Active	Not Active	Not Active	–	–	–	–	–	–
O=C(O)c1cc(/N=N/c2ccc(S(=O)(=O)Nc3ccccn3)cc2)ccc1O [SULFASALAZINE]	Not Active	Not Active	Not Active	Not Active	Not Active	Not Active	–	Not Active	6.33	–	–	–	–	–
CC1=C(/C=C/C(C)=C/C=C/C(C)=C/C(=O)O)C(C)(C)CCC1 [TRETINOIN]	Not Active	Not Active	Not Active	Not Active	Not Active	Not Active	–	Not Active	0.576	–	–	–	–	–
CC[C@H](C)C(=O)O[C@H]1CCC=C2C=C[C@H](C)[C@H](CC[C@@H]3C[C@@H](O)CC(=O)O3)[C@H]21 [MEVASTATIN]	Not Active	Not Active	Not Active	Not Active	Not Active	Not Active	Not Active	Not Active	–	–	–	–	–	–
CCN(CC)C(=S)SSC(=S)N(CC)CC	–	Not Active	Not Active	Not Active	–	Not Active	Not Active	–	–	6.01	4.21	16100	4720	2150
O=[As][O-].[Na+] [SODIUM ARSENITE]	Not Active	Not Active	Not Active	Not Active	Not Active	Not Active	Not Active	Not Active	–	–	–	–	–	–
CCN(CC)N=O [N-NITROSODIETHYLAMINE]	Not Active	Not Active	Not Active	Not Active	Not Active	Not Active	Not Active	Not Active	–	–	–	–	–	–
Nc1nc(N)c2nc(-c3ccccc3)c(N)nc2n1	Not Active	Not Active	Not Active	Not Active	Not Active	Not Active	Not Active	Not Active	–	–	–	–	–	–
CCN(CC)CCNC(=O)c1cc(Cl)c(N)cc1OC [METOCLOPRAMIDE]	Not Active	Not Active	Not Active	Not Active	Not Active	Not Active	Not Active	Not Active	–	–	–	–	–	–
Cc1cc2c(s1)Nc1ccccc1N=C2N1CCN(C)CC1 [OLANZAPINE]	Not Active	–	–	Not Active	–	Not Active	Not Active	–	–	–	–	2770	707	433
Cc1nnc(NS(=O)(=O)c2ccc(N)cc2)s1 [SULFAMETHIZOLE]	Not Active	Not Active	Not Active	Not Active	Not Active	Not Active	Not Active	Not Active	–	–	–	–	–	–
CC#C[C@]1(O)CC[C@H]2[C@@H]3CCC4=CC(=O)CCC4=C3[C@@H](c3ccc(N(C)C)cc3)C[C@@]21C [MIFEPRISTONE]	Not Active	Not Active	Not Active	Not Active	–	Not Active	Not Active	Not Active	–	–	–	555	–	–
CS(=O)(=O)c1ccc(C2=C(c3ccccc3)C(=O)OC2)cc1 [ROFECOXIB]	Not Active	Not Active	Not Active	Not Active	Not Active	Not Active	Not Active	Not Active	–	–	–	–	–	–
CC1(C)[C@H](C(=O)O)N2C(=O)C[C@H]2S1(=O)=O [SULBACTAM]	Not Active	Not Active	Not Active	Not Active	Not Active	Not Active	Not Active	Not Active	–	–	–	–	–	–
CO[C@@H]1[C@@H](OC)[C@H](C)[C@@](O)(CC(=O)O)O[C@H]1[C@H](C)[C@H]1O[C@@]2(CC[C@@](C)([C@H]3CC[C@@](C)([C@@H]4O[C@@H]([C@H]5O[C@](C)(O)[C@H](C)C[C@@H]5C)C[C@@H]4O[C@@H]4C[C@H](OC)[C@@H](OC)[C@H](C)O4)O3)O2)C[C@H](O)[C@H]1C.N [MADURAMICIN]	Not Active	Not Active	Not Active	Not Active	Not Active	Not Active	Not Active	Not Active	–	–	–	–	–	–
CNCCCC12CCC(c3ccccc31)c1ccccc12 [MAPROTILINE]	Not Active	–	–	Not Active	Not Active	Not Active	Not Active	Not Active	–	–	–	–	–	–
CN(C)CCC=C1c2ccccc2COc2ccccc21 [DOXEPIN]	Not Active	–	–	Not Active	Not Active	Not Active	Not Active	Not Active	–	–	–	–	–	–
